In series [1] the test system is kidney proximal tubular cells. The series can be described thus: In vivo endocytic tracing with TexasRed-ovalbumin in WT mice. Conditions: 3 weeks diet. As for the experimental part: We also examined whether apical endocytic trafficking of megalin cargo could be blocked under 5x-L-lysine, using apical endocytic tracing in WT mice with the fluorescent megalin ligand, TexasRed-ovalbumin (TxR-OVA). Normally, mice feed at night hours. To optimize PT exposure to ingested lysine during endocytic tracing performed at day hours, mice were first reprogrammed by adaptation to inverted […]. […] This implied that the extent of competition in cortical PTCs could be greatly underestimated by measured LMWPuria. At higher magnification, contacts of TxR-OVA labeled apical endosomes with lysosomes in cortical PTCs were still visible under 5X-L-Lysine, arguing against a major impairment of apical endosomal trafficking (Fig. 4b). […]
For in vivo endocytic tracing in PTCs, Texas Red-ovalbumin (300 µg, Invitrogen #O23021) was injected intravenously at 20 min before sacrifice. […] Proliferative events in kidney cortex were quantified as described. […] Histological PAS staining and quantification of the frequency of swan-neck lesions were performed as described. Sirius Red staining of paraffine sections and morphometry in total sagittal kidney sections after conversion to red fluorescence were performed as described[53],[54].

Another series relates to megalin and cubilin. The arrangement: method as in PMID 16508656. To be noted: rats, cited from earlier work.
A further series deals with Ctns KO mice kidneys. The series can be described thus: Kidney histology (swan-neck lesions, Sirius-red fibrosis) in Ctns KO mice. Conditions: primary prevention, diet from 2-to-6 months-of-age, control diet ~ 80%. The class given is in vivo. The text has this:
By histological survey, no obvious change was evidenced after HE or PAS staining (Supplemental Fig. 4a). We thus scored the abundance of characteristic swan-neck lesions at the glomerulo-tubular junction, a quantitative marker disease, and again found no detectable protection (Supplemental Fig. 4b). However, at 6-months-of-age as baseline, most junctions were already altered (~ 80%), leaving little scope for a potential benefit. […] To look for fibrosis, histological sections at 8 months-of-age were stained with Sirius-red; its signal was automatically divided into three intensity levels over the entire kidney cortex. This quantification disclosed no detectable decrease of Sirius-red staining, thus fibrosis, upon dAAs at this interval (Supplemental Fig. 4c,d).
For in vivo endocytic tracing in PTCs, Texas Red-ovalbumin (300 µg, Invitrogen #O23021) was injected intravenously at 20 min before sacrifice. […] Proliferative events in kidney cortex were quantified as described. […] Histological PAS staining and quantification of the frequency of swan-neck lesions were performed as described. Sirius Red staining of paraffine sections and morphometry in total sagittal kidney sections after conversion to red fluorescence were performed as described[53],[54]. […]
Fo r the significance of swan-necks, please see [26]. Fo r more information on swan-neck quantification, see [22]. […]

Series [2] is described as follows: Tolerance of prolonged 5x-dAA diets in mice. To be noted: ad libitum 5x-supplemented solid diet, approx. 45 mmoles/kg/day.
Excerpt: Ctns knockout mice (C57BL/6 background) were kindly provided by Dr. Corinne Antignac[18]. […] The same increase was set for L- (and D-) lysine.
The next series concerns cystinotic rat model. The series can be described thus: 5x-L-lysine diet in cystinotic rat model (preliminary, not shown). The class given is in vivo. To be noted: preliminary results (not shown).
Series [3] concerns kidney tubular reabsorption of LMWPs. The arrangement: method as in PMID 98829. To be noted: humans, intravenous injection; cited from earlier work.
The test system of a further series is megalin pathway. Conditions: mouse, in vivo.

SMILES strings stand for the structures.

Description for megalin pathway: After 24-h adaptation in metabolic cages, urine was collected during the following 24 h in presence of 0.1% sodium azide and 1x-protease inhibitors (Thermo Scientific). When in metabolic cages, mice had free access to tap water and food. Blood was collected 2 days before starting the treatments and entry into metabolic cages (baseline) and at the sacrifice to obtain serum. Body weight was recorded before entering the metabolic cages. Urine and serum analyses were performed by the veterinary laboratory Appialab Srl (Rome, Italy). Urinary levels of CC16 were measured by the Mouse Clara Cell Protein 16 kit 96 T #EKU03200 (Biomatik) according to manufacturer’s instructions. Serum levels of cystatin-C were measured by the Mouse/Rat Cystatin C Quantitative ELISA #MSCTC0 (R&D Systems). […] Creatinine clearance was normalized by mouse body weight.

As to `NCCCC[C@H](N)C(=O)O` [5x-L-lysine, L-lysine], the “distribution of endocytic load from S1/S2 (cortex) to S3 segment (outer medulla)” value in series [1] (inverted light cycle) is recorded as “strong redistribution”. In addition, the “TxR-OVA fluorescence intensity in cortical PTCs” value in series [1] (inverted light cycle (reprogrammed feeding hours), 20 min after injection) is given as “greatly decreased”. In the series on megalin and cubilin (1-day gavage, 80 mmoles/kg), the tolerance result is recorded as “well tolerated”. The LMWPuria entry with megalin and cubilin (gavage for one day) was “prominent LMWPuria”. Also, in the series with megalin and cubilin (gavage for one day, from base of brush border to brush border itself), the “localization of megalin and cubilin in PTCs” value was “striking relocation”. Besides, the “swan-neck frequency at 6 months-of-age” value in the series on Ctns KO mice kidneys is listed as ~ 20%. Moreover, the “tolerance of prolonged diet” value in series [2] was “well tolerated”. For the same compound, in the series on cystinotic rat model, the Fanconi syndrome entry is reported as “serious worsening” and the kidney cystine accumulation entry is reported as “considerably decreased”. In series [3], the “impact on glomerular filtration” value was “no impact” and the “inhibition of kidney tubular reabsorption of LMWPs” value is “dose-dependent (up to complete) inhibition”.

As to `N=C(N)NCCC[C@H](N)C(=O)O` [5x-L-arginine, L-arginine], in the series on megalin pathway, the Urine microalbumin/creatinine was found to be 0.2 ± 0.0 mg/g and the “increase of microalbuminuria vs control diet” value is on record as “no detectable increase”.

The values above are taken from paper PMC10570359, “Dietary supplementation of cystinotic mice by lysine inhibits the megalin pathway and decreases kidney cystine content” (Scientific Reports, 2023).
